These results are taken from US20160106813A1 (CENTRE NATIONAL DE LA RECHERCHE SCHIENTIFIQUE (CNRS), priority 2013, published 2016).

Ends that are not written are not given here.

Assay [1] concerns CCL3/MIP-1α. In words: CCL3/MIP-1α levels in LC-TC co-culture supernatants, multiplex assay and flow cytometry. It is filed as cell-based, human. Conditions: highest concentration of BAY117082, n=4. In general terms: Flow cytometry measures light scatter and fluorescence of single cells or particles in a stream.
The subject of assay [2] is HIV-1. To be noted: agent added during co-culture; dose-dependent.
Method: Normal goat IgG, neutralizing CCL3/MIP-1α goat Ab (R&D systems, Minneapolis, Minn., USA), or the NFκB inhibitor BAY117082 (Santa Cruz Biotechnology, Santa Cruz, Calif., USA), were included during the co-culture period (MDLC-TC) described previously. HIV-1 replication was measured in the co-culture supernatants a week later by p24 ELISA (Innotest; Innogenetics, Gent, Belgium).
The test system of assay [3] is HIV-1 JRCSF. In words: HIV-1 transfer from monocyte-derived Langerhans cells (MDLC) to CD4+ T-cells, p24 ELISA of co-culture supernatants. The format is cell-based. How it is done: Peripheral blood mononuclear cells (PBMCs) from healthy donors were separated from whole blood by a standard Ficoll gradient. CD14+ monocytes and CD4+ TCs were obtained from PBMCs by negative magnetic selection (Stemcell Technologies, Grenoble, France) according to the manufacturer's instructions. MDLC were prepared and maintained as described (Masterson et al., Blood 100:701-703; Geissmann et al., J Exp Med 187:961-966.)
For orientation: In an ELISA, binding on a coated surface is turned into a signal by an enzyme label.

Turning to `Cc1ccc(S(=O)(=O)/C=C/C#N)cc1` [BAY117082], in assay [1], the “CGRP-induced CCL3/MIP-1α secretion in presence of inhibitor, mean±s.e.m fold” value was determined as 1.0±0.1 fold. Moreover, the “effect on CGRP-mediated HIV-1 transfer inhibition” value in assay [2] was “abrogated”.

Regarding “Ala-Cys-Asn-Thr-Ala-Thr-Cys-Val-Thr-His-Arg-Leu-Ala-Gly-Leu-Leu-Ser-Arg-Ser-Gly-Gly-Met-Val-Lys-Ser-Asn-Phe-Val-Pro-Thr-Asn-Val-Gly-Ser-Lys-Ala-Phe-NH2 (ACNTATCVTHRLAGLLSRSGGMVKSNFVPTNVGSKAF-NH2; ends and bridges not checked) [beta CGRP]”, in assay [3] (MDLCs pretreated with the peptide, pulsed with HIV-1 JRCSF (R5), co-cultured a week with CD4+ TCs), the “HIV-1 transfer from Langerhans cells to TCs (in words)” value is “inhibit HIV-1 transfer”.

Take “CGRP8-37: truncated CGRP receptor antagonist (VTHRLAGLLSRSGGVVKNNFVPTNVGSKAF; ends and bridges not checked; UniProt P06881 90-119, looked up, fragment)”: the “effect on the inhibitory effect of CGRP on HIV-1 transfer” value in assay [3] (1000 nM CGRP8-37 added 10 min before CGRP) is listed as “completely abrogated”.
